The values below are quoted from earlier work in PMC6151383 (Molecules : A Journal of Synthetic Chemistry and Natural …, 2017).

Each structure is given as a SMILES string.

The series deals with Staphylococcus aureus, including a methicillin-resistant strain (MRSA), M. tuberculosis and Mycobacterium avium. To be noted: range over S. aureus; cited from earlier work.

`O=S(=O)(Nc1ncccn1)c1ccc(N=Cc2cc(Cl)ccc2O)cc1` [Compound 2c, 4-[(5-Chloro-2-hydroxybenzylidene)amino]-N-(pyrimidin-2-yl)benzenesulfonamide]: the MIC values was 125 to 250 µM.
